Measured values as given in patent US9790188B2, “Benzimidazole derivatives and uses thereof” (Whitehead Institute for Biomedical Research, priority 2013, dated 2017).

Key:
WT yeast = experiment: Growth inhibition of wild-type yeast (dose-response); type: cell-based; settings: relative to parent ABI1
Experimental: (§1) Source plates were assembled in 96 well plates using multichannel pipettes to dilute rows in 1.6-fold serial dilutions of CSMGal. […] For α-syn, the final starting OD600 was 0.02. Drug concentration ranges varied depending on efficacy, growth inhibition, and solubility in media. A Tecan EvoFreedom liquid handling robot was then used to transfer culture from 96 to 384 well format with each well being represented four times. Final well volume was 35 μL. Plates were then incubated in humidified containers at 30° C. for either 24 or 40 hours. Plates were then read with a Tecan Saphire plate reader at OD600.
(§2) Raw OD600 values were transformed to “Relative Growth” in WT cells or “% Maximum Rescue” in α-syn experiments. In WT cells, the well background was subtracted and all values were then normalized to 100% for the untreated condition. In α-syn rescue experiments, the well background was subtracted and the maximum rescue in the particular experiment was normalized to 100%.

α-syn = experiment: Yeast growth rescue from α-syn toxicity (dose-response); type: cell-based; settings: relative to parent ABI1
Experimental: For galactose-induction experiments, overnight cultures were grown in CSM/2% glucose to saturation and diluted 1:20 into CSM/2% raffinose for ˜2 generations. Cultures were then diluted into CSM/2% galactose at an optimum OD600 for the experiment (see ‘Growth assays’).
as §1, §2

`Cc1cc(C)cc(-n2cnc3cc(C(=O)NCc4ccccc4Cl)ccc32)c1` [ABI3, N-(2-chlorobenzyl)-1-(3,5-dimethylphenyl)-1H-benzo[d]imidazole-5-carboxamide] was tested, and the “shift of concentrations for ability to inhibit growth” value (WT yeast) was “higher” and the “shift of concentrations for efficacy against α-syn” value (α-syn) was “higher”.
